Measurements as given in patent US20250120927A1, “CNDP2 MODULATORS AND METHODS FOR THEIR USE” (Metabolon Inc., priority 2023, published 2025).
Where a name gives a salt, the structure may show the parent alone.

target: CNDP2 (Homo sapiens (Human), UniProt Q96KP4); experiment: CNDP2 enzyme inhibition assay (Met-His hydrolysis, free histidine by o-phthaldialdehyde fluorescence), dose-response; assay type: biochemical; conditions: 50 nM purified CNDP2 (Sino Biological), 1 mM Met-His substrate, 30 minutes at 37° C.; TABLE 1
Sequence (Q96KP4 whole entry): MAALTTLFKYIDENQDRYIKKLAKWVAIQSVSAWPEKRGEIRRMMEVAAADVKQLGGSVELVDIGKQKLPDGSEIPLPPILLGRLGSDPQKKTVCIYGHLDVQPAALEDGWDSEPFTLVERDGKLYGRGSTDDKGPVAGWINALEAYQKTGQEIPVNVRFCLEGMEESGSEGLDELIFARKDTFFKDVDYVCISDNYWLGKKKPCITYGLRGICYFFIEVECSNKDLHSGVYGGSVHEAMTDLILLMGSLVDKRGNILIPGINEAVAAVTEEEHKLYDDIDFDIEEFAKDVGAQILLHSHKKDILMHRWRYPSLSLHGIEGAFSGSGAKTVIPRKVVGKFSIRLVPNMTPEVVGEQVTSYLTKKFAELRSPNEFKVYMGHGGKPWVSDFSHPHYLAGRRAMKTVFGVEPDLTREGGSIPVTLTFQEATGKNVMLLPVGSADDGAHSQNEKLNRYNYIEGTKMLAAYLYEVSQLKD
Procedure: To identify optimal conditions for identifying novel inhibitors of CNDP2, enzyme assays were performed with varied sources of purified enzyme, concentrations of enzyme, peptide substrates, concentrations of peptide substrates and metal cofactors. […] The reaction mixture was incubated for 30 minutes at 37° C. before it was quenched with an equal volume of 1% TCA. Free histidine was quantified after derivatization with a fluorophore (o-phthaldialdehyde from Sigma-Aldrich, excitation 340 nm, emission 460 nm). The reaction was conducted in an automation-friendly format to meet future screening throughput demands. A histidine titration standard curve was also included to enable conversion of fluorescence signal to molar concentration of histidine released by the hydrolysis reaction and to ensure the linearity of the fluorescence signal vs. free histidine.
Compounds of Formula (I) disclosed herein were screened for potency in inhibiting CNDP2 enzyme activity in a dose-response experiment. Bestatin was included with each batch of test molecules as a benchmark for assay quality control.

Compared with `N[C@H](Cc1ccccc1)[C@H](O)C(=O)NC(Cc1ccc(C(F)(F)F)cc1)C(=O)O` (stereo partly drawn) [Compound 16, 2-[[(2S,3R)-3-amino-2-hydroxy-4-phenyl-butanoyl]amino]-3-[4-(trifluoromethyl)phenyl]propanoic acid], `N[C@H](Cc1ccccc1)[C@H](O)C(=O)N[C@@H](Cc1ccc(Br)cc1)C(=O)O` [Compound 25, 2-[[(2S,3R)-3-amino-2-hydroxy-4-phenyl-butanoyl]amino]-3-(4-bromophenyl)propanoic acid] is lower in IC50: 100 to 1000 nM for the first, less than 100 nM for the second. The second is the more potent here.

`N[C@H](Cc1ccccc1)[C@H](O)C(=O)N[C@H](C(=O)O)C1CCC(F)(F)CC1` [Compound 34] and `N[C@H](Cc1ccccc1)[C@H](O)C(=O)N[C@H](C(=O)O)C1CCC1` [Compound 20, (2S)-2-[[(2S,3R)-3-amino-2-hydroxy-4-phenyl-butanoyl]amino]-2-cyclobutyl-acetic acid] cannot be ordered by IC50: 100 to 1000 nM for the first, no less than 1000 nM for the second.

First: N[C@H](Cc1ccccc1)[C@H](O)C(=O)NC(CC1CCOCC1)C(=O)O (stereo partly drawn) [Compound 23, 2-[[(2S,3R)-3-amino-2-hydroxy-4-phenyl-butanoyl]amino]-3-tetrahydropyran-4-yl-propanoic acid]
Second: N[C@H](Cc1ccccc1)[C@H](O)C(=O)NC(CC1CC(F)(F)C1)C(=O)O (stereo partly drawn) [Compound 22, 2-[[(2S,3R)-3-amino-2-hydroxy-4-phenyl-butanoyl]amino]-3-(3,3-difluorocyclobutyl)propanoic acid]
The IC50 of the first is lower: less than 100 nM for the first, no less than 1000 nM for the second. The first is the more potent here.

`CC(C)C[C@H](NC(=O)[C@@H](O)[C@H](N)Cc1ccc(Br)cc1)C(=O)O` [Compound 39] and `CC(C)C[C@H](NC(=O)[C@@H](O)[C@H](N)Cc1ccccc1Br)C(=O)O` [Compound 40] cannot be ordered by IC50: no less than 1000 nM for the first, no less than 1000 nM for the second.

Going from `NC(=O)[C@@H](NC(=O)[C@@H](O)[C@H](N)Cc1ccccc1)c1cccc(OC(F)(F)F)c1` [Compound 44] to `N[C@H](Cc1ccccc1)[C@H](O)C(=O)NC(C(=O)O)c1cccc(C(F)(F)F)c1` (stereo partly drawn) [Compound 10, 2-[[(2S,3R)-3-amino-2-hydroxy-4-phenyl-butanoyl]amino]-2-[3-(trifluoromethyl)phenyl]acetic acid], the IC50 falls from no less than 1000 nM to less than 100 nM. The second is the more potent here.

`N[C@H](Cc1ccccc1)[C@H](O)C(=O)NC(C(=O)O)c1ccccc1` (stereo partly drawn) [Compound 3, 2-[[(2S,3R)-3-amino-2-hydroxy-4-phenyl-butanoyl]amino]-2-phenyl-acetic acid] and `N[C@H](Cc1ccccc1)[C@H](O)C(=O)N[C@@H](Cc1ccccc1Br)C(=O)O` [Compound 26, 2-[[(2S,3R)-3-amino-2-hydroxy-4-phenyl-butanoyl]amino]-3-(2-bromophenyl)propanoic acid] cannot be ordered by IC50: no less than 1000 nM for the first, no less than 1000 nM for the second.

`CC1(C)CC(C(NC(=O)[C@@H](O)[C@H](N)Cc2ccccc2)C(=O)O)CCO1` (stereo partly drawn) [Compound 38] and `N[C@H](Cc1ccccc1)[C@H](O)C(=O)N[C@H](C(=O)O)C1CCCC1` [Compound 4, (2S)-2-[[(2S,3R)-3-amino-2-hydroxy-4-phenyl-butanoyl]amino]-2-cyclopentyl-acetic acid] cannot be ordered by IC50: no less than 1000 nM for the first, 100 to 1000 nM for the second.

Going from `N[C@H](Cc1ccc(Cl)cc1)[C@H](O)C(=O)N[C@H](C(=O)O)c1cccc(C(F)(F)F)c1` [Compound 49] to `COc1ccc(C[C@H](NC(=O)[C@@H](O)[C@H](N)Cc2ccccc2)C(=O)O)cc1` [Compound 18, (2S)-2-[[(2S,3R)-3-amino-2-hydroxy-4-phenyl-butanoyl]amino]-3-(4-methoxyphenyl)propanoic acid], the IC50 rises from less than 100 nM to no less than 1000 nM. The first is the more potent here.

same assay, conditions: 50 nM purified CNDP2 (Sino Biological), 1 mM Met-His substrate, 30 minutes at 37° C.; TABLE 2

`N[C@H](Cc1ccccc1)[C@H](O)C(=O)NC(C(=O)O)c1cccc(OC(F)F)c1` (stereo partly drawn) [Compound 65] and `N[C@H](Cc1ccccc1)[C@H](O)C(=O)N[C@@H](C(=O)O)c1ccc(F)c(C(F)(F)F)c1` [Compound 94, (R)-2-((2S,3R)-3-amino-2-hydroxy-4-phenylbutanamido)-2-(4-fluoro-3-(trifluoromethyl)phenyl)acetic acid] cannot be ordered by IC50: less than 100 nM for the first, less than 100 nM for the second.

`N[C@H](Cc1ccccc1)[C@H](O)C(=O)N[C@@H](C(=O)O)c1cc(Cl)cc(OC(F)(F)F)c1` [Compound 108, (R)-2-((2S,3R)-3-amino-2-hydroxy-4-phenylbutanamido)-2-(3-chloro-5-(trifluoromethoxy)phenyl)acetic acid hydrochloride] and `N[C@H](Cc1ccccc1)[C@H](O)C(=O)N[C@@H](C(=O)O)c1cc(F)cc(OC(F)(F)F)c1` [Compound 102, (R)-2-((2S,3R)-3-amino-2-hydroxy-4-phenylbutanamido)-2-(3-fluoro-5-(trifluoromethoxy)phenyl)acetic acid] cannot be ordered by IC50: no less than 1000 nM for the first, no less than 1000 nM for the second.

`N[C@H](Cc1ccccc1)[C@H](O)C(=O)N[C@H](C(=O)O)c1cc(C(F)(F)F)ccc1C(F)(F)F` [Compound 81] and `N[C@H](Cc1ccccc1)[C@H](O)C(=O)N[C@H](C(=O)O)c1cccc(C(F)(F)F)c1F` [Compound 91, (S)-2-((2S,3R)-3-amino-2-hydroxy-4-phenylbutanamido)-2-(2-fluoro-3-(trifluoromethyl)phenyl)acetic acid] cannot be ordered by IC50: no less than 1000 nM for the first, 100 to 1000 nM for the second.

`N[C@H](Cc1ccccc1)[C@H](O)C(=O)NC(c1cccc(C(F)(F)F)c1)c1noc(=O)[nH]1` (stereo partly drawn) [Compound 71] and `N[C@H](Cc1ccccc1)[C@H](O)C(=O)NC(c1cccc(C(F)(F)F)c1)C(F)(F)C(=O)O` (stereo partly drawn) [Compound 64] cannot be ordered by IC50: 100 to 1000 nM for the first, no less than 1000 nM for the second.

Going from `N[C@H](Cc1ccccc1)[C@H](O)C(=O)NC(CN1CCC(F)(F)CC1)C(=O)O` (stereo partly drawn) [Compound 72] to `N[C@H](Cc1ccccc1)[C@H](O)C(=O)N[C@@H](Cc1cccc(OC(F)(F)F)c1)C(=O)O` [Compound 118, (S)-2-((2S,3R)-3-amino-2-hydroxy-4-phenylbutanamido)-3-(3-(trifluoromethoxy)phenyl)propanoic acid], the IC50 falls from no less than 1000 nM to less than 100 nM. The second is the more potent here.

Going from `N[C@H](Cc1ccccc1)[C@H](O)C(=O)N[C@H](C(=O)O)c1ccc(Cl)c(OC(F)(F)F)c1` [Compound 107, (S)-2-((2S,3R)-3-amino-2-hydroxy-4-phenylbutanamido)-2-(4-chloro-3-(trifluoromethoxy)phenyl)acetic acid hydrochloride] to `N[C@H](Cc1ccccc1)[C@H](O)C(=O)N[C@@H](C(=O)O)c1ccc(Cl)c(OC(F)(F)F)c1` [Compound 106, (R)-2-((2S,3R)-3-amino-2-hydroxy-4-phenylbutanamido)-2-(4-chloro-3-(trifluoromethoxy)phenyl)acetic acid hydrochloride], the IC50 rises from less than 100 nM to no less than 1000 nM.

First: N[C@H](Cc1ccccc1)[C@H](O)C(=O)N[C@@H](C(=O)O)c1ccc(F)c(C(F)(F)F)c1F [Compound 96, (R)-2-((2S,3R)-3-amino-2-hydroxy-4-phenylbutanamido)-2-(2,4-difluoro-3-(trifluoromethyl)phenyl)acetic acid]
Second: N[C@H](Cc1ccccc1)[C@H](O)C(=O)N[C@H](C(=O)O)c1ccc(F)c(C(F)(F)F)c1F [Compound 97, (S)-2-((2S,3R)-3-amino-2-hydroxy-4-phenylbutanamido)-2-(2,4-difluoro-3-(trifluoromethyl)phenyl)acetic acid]
The IC50 of the first is lower: less than 100 nM for the first, 100 to 1000 nM for the second. The first is the more potent here.

Compared with `N[C@H](Cc1ccccc1)[C@H](O)C(=O)N[C@H](C(=O)O)c1ccc(F)c(OC(F)(F)F)c1` [Compound 105, (S)-2-((2S,3R)-3-amino-2-hydroxy-4-phenylbutanamido)-2-(4-fluoro-3-(trifluoromethoxy)phenyl)acetic acid], `N[C@H](Cc1ccccc1)[C@H](O)C(=O)N[C@@H](C(=O)O)c1ccc(F)c(OC(F)(F)F)c1` [Compound 104, (R)-2-((2S,3R)-3-amino-2-hydroxy-4-phenylbutanamido)-2-(4-fluoro-3-(trifluoromethoxy)phenyl)acetic acid] is higher in IC50: less than 100 nM for the first, no less than 1000 nM for the second. The first is the more potent here.

First: N[C@H](Cc1ccccc1)[C@H](O)C(=O)N[C@@H](C(=O)O)c1ccc(Br)c(OC(F)(F)F)c1 [Compound 110, (R)-2-((2S,3R)-3-amino-2-hydroxy-4-phenylbutanamido)-2-(4-bromo-3-(trifluoromethoxy)phenyl)acetic acid hydrochloride]
Second: N[C@H](Cc1ccccc1)[C@H](O)C(=O)N[C@H](C(=O)O)c1ccc(Br)c(OC(F)(F)F)c1 [Compound 111, (S)-2-((2S,3R)-3-amino-2-hydroxy-4-phenylbutanamido)-2-(4-bromo-3-(trifluoromethoxy)phenyl)acetic acid hydrochloride]
The IC50 of the first is higher: no less than 1000 nM for the first, less than 100 nM for the second. The second is the more potent here.

`N[C@H](Cc1ccc(Br)cc1)[C@H](O)C(=O)N[C@H](C(=O)O)c1cccc(OC(F)(F)F)c1` [Compound 129, (S)-2-((2S,3R)-3-amino-4-(4-bromophenyl)-2-hydroxybutanamido)-2-(3-(trifluoromethoxy)phenyl)acetic acid] and `N[C@H](Cc1ccc(Cl)cc1)[C@H](O)C(=O)N[C@@H](C(=O)O)c1cccc(OC(F)(F)F)c1` [Compound 128, (R)-2-((2S,3R)-3-amino-4-(4-chlorophenyl)-2-hydroxybutanamido)-2-(3-(trifluoromethoxy)phenyl)acetic acid] cannot be ordered by IC50: no less than 1000 nM for the first, no less than 1000 nM for the second.

Compared with `N[C@H](Cc1ccccc1)[C@H](O)C(=O)N[C@@H](Cc1cc(F)c(OC(F)(F)F)c(F)c1)C(=O)O` [Compound 98], `N[C@H](Cc1ccccc1)[C@H](O)C(=O)N[C@H](C(=O)O)c1cc(F)cc(OC(F)(F)F)c1` [Compound 103, (S)-2-((2S,3R)-3-amino-2-hydroxy-4-phenylbutanamido)-2-(3-fluoro-5-(trifluoromethoxy)phenyl)acetic acid] is lower in IC50: 100 to 1000 nM for the first, less than 100 nM for the second. The second is the more potent here.

`N[C@H](Cc1ccccc1)[C@H](O)C(=O)NC(C(=O)O)c1cc(F)cc(C(F)(F)F)c1` (stereo partly drawn) [Compound 68] gave an IC50 of less than 100 nM.
